{"source": "patent US8716333B2", "about": "“Process and compounds for the manufacture of oseltamivir and analogs thereof, and new antiviral agents” (Brock University, priority 2009, dated 2014)", "key": {"[1]": {"target": "T1, Neu1 sialidase (Mus musculus, UniProt O35657)", "T1 construct": "endogenous in cells; host or cells: RAW-blue macrophage cells", "test": "LPS-induced Neu1 sialidase activity in live RAW-blue macrophage cells (4MU-NeuAc fluorescence)", "format": "cell-based", "settings": "for pIC50: LPS-induced sialidase activity on the cell surface of live RAW-blue macrophage cells, substrate 4MU-NeuAc, fluorescence at 1-2 min", "procedure": "Inhibitory Potency of Compounds of the Application on Lipopolysaccharide (LPS)-Induced Neu1 Sialidase Activity in Live Raw-Blue Macrophage Cells\nCompounds of the application were assessed for antiviral activity using an assay that detects sialidase activity on the surface of viable cells. […] Fluorescent images were taken at 1-2 minutes after adding the substrate using epi-fluorescent microscopy (40× objective). The mean fluorescence surrounding the cells for each of the images was measured using Image J software."}}, "note": "pIC50: −log10 of the molar value."}
{"smiles": "CCOC(=O)C1=C[C@@H]2OC(C)=N[C@@H]2[C@@H](NC(=O)OC(C)(C)C)C1", "note": "[Compound 14, (3aR,4S,7aS)-ethyl 4-(tert-butoxycarbonylamino)-2-methyl-3a,4,5,7a-tetrahydrobenzo[d]oxazole-6-carboxylate]", "values": [{"measurement": "melting point", "result": "45 to 49", "unit": "°C"}]}
{"smiles": "CCOC(=O)C1=C[C@@H](OC(CC)CC)[C@H](NC(C)=O)[C@@H](NC(=O)OC(C)(C)C)C1", "note": "[Compound 15, (3R,4R,5S)-ethyl 4-acetamido-5-(tert-butoxycarbonylamino)-3-(pentan-3-yloxy)cyclohex-1-enecarboxylate]", "values": [{"measurement": "melting point", "result": "144 to 145", "unit": "°C"}]}
{"smiles": "CC(=O)N[C@@H]1C=C[C@@](O)(C(=O)O)[C@H]2OC(C)(C)O[C@@H]12", "note": "[Compound 16, Sodium (3aS,4S,7R,7aS)-7-acetamido-4-hydroxy-2,2-dimethyl-3a,4,7,7a-tetrahydrobenzo[d][1,3]dioxole-4-carboxylate]", "values": [{"measurement": "pIC50", "setting": "[1]", "result": 6.85}]}
{"smiles": "CC(=O)N[C@@H]1/C(=N/O)C=C(C(=O)O)[C@H]2OC(C)(C)O[C@H]21", "note": "[Compound 17, Sodium (3aR,7R,7aS,E)-7-acetamido-6-(hydroxyimino)-2,2-dimethyl-3a,6,7,7a-tetrahydrobenzo[d][1,3]dioxole-4-carboxylate]", "values": [{"measurement": "pIC50", "setting": "[1]", "result": 7.90}]}
{"smiles": "CC(=O)N[C@H]1[C@@H]2OC(C)(C)O[C@@H]2C(C(=O)O)=C[C@H]1O", "note": "[Compound 19, Sodium (3aR,6R,7R,7aS)-7-acetamido-6-hydroxy-2,2-dimethyl-3a,6,7,7a-tetrahydrobenzo[d][1,3]dioxole-4-carboxylate]", "values": [{"measurement": "pIC50", "setting": "[1]", "result": 5.13}]}
{"smiles": "CCOC(=O)C1=C[C@@H](OC(CC)CC)[C@H](NC(C)=O)[C@@H](N)C1", "note": "[oseltamivir phosphate 1a (Tamiflu ®), oseltamivir phosphate, reference compound]", "values": [{"measurement": "inhibition of LPS-induced sialidase activity", "setting": "[1]; RAW-blue macrophage cells, dose dependent manner", "result": "completely inhibited"}]}
